Reference: patent US10799496B2, “Naphthylenyl compounds for long-acting injectable compositions and related methods” (priority 2018, dated 2020)

Experiments:
[1] = Whole blood stability assay; format: in vitro ADME; conditions: prodrug 50 nM, fresh pooled human whole blood, 37 degrees C.; read-out: t1/2 at 37 degrees C. in human whole blood
Protocol: Naltrexone prodrug stability was assessed using freshly collected whole blood (within 24-hr collection) from pooled human (n=3) donors. The incubation mixtures were prepared by spiking the prodrugs into pre-warmed (37 degrees C.) fresh whole blood to a final concentration of 50 nM. After gentle mixing, aliquots of incubation mixtures were immediately transferred into four different 96-deep well plates. One plate was used for each time point. The plates were incubated at 37 degrees C. at a shaking speed of 100 rpm. At time points 15, 30, 60 and 120 minutes, the reaction was quenched by addition of a mixture of water and acetonitrile containing the internal standard (naltrexone-D3). Time point 0 minutes was prepared separately by spiking the prodrugs into a quenched whole blood to obtain a final concentration of 50 nM. All samples were vortexed at a low speed for 15 min and centrifuged at 3900 rpm for 15 min. Supernatants were transferred into 96-well plates for LC-MS/MS analysis to monitor the depletion of the prodrugs and the formation of naltrexone.
The amount of remaining prodrug and released naltrexone for each sample was quantitated against the calibration curves prepared with the whole blood. The human whole blood was purchased from BioreclamationIVT (Westbury, N.Y., USA). Naltrexone-D3 was purchased from CERILLIANT® (Round Rock, Tex., USA). […] Where multiple runs have been completed, average values are reported.

[2] = Pharmacokinetic evaluation of the release of naltrexone from Compound 2 in rats following a single intramuscular injection; format: in vivo, Sprague-Dawley rats; conditions: for Compound 2 conc.: rat plasma
Protocol: Five male Sprague-Dawley rats were allowed to acclimate to the test facility for at least 2 days prior to study start. For dose administration of Compound 2, the rats were lightly anesthetized with isofluorane, the hind leg shaved and dosed intramuscularly with the formulation using a 21G needle. […] Serial whole blood samples were collected via sublingual route (˜150 μL) at 1, 8, and 24 hours post dose, and at 2, 4, 7, 10, 14, 17, 21, 24, 28, 35, 42, 49, 56, 63, 71, 78, 85, and 91 days post dose.
Blood samples were placed into K2EDTA blood collection tubes. After collection, blood samples were maintained chilled (on wet ice) and centrifuged (11,500 rpm for 2 minutes at 5 degrees C.) within 30 minutes to obtain plasma. Plasma was transferred into a single vial, 1.5 mL screw cap micro-centrifuge tube with inserts and stored at −80 degrees C. until analysis.
The formulation dosed was a crystalline suspension of Compound 2 (46 milligrams of Compound 2 dosed per animal), wherein the crystalline test article was characterized with a particle size distribution of Dv10=12.9 μm, Dv50=31.5 μm, and Dv90=63.1 μm (as measured via laser diffraction). The formulation was prepared the day before dosing. Details of the formulation dosed are described in Table D below.
Results of the above intramuscular rat study of Compound 2 are shown in Tables E and F. In particular, Table E reports the average blood plasma levels of naltrexone in rat (n=5) over 91 days following intramuscular administration.

O=C(Cc1ccc2cc(CC(=O)Oc3ccc4c5c3O[C@H]3C(=O)CC[C@@]6(O)[C@@H](C4)N(CC4CC4)CC[C@]536)ccc2c1)Oc1ccc2c3c1O[C@H]1C(=O)CC[C@@]4(O)[C@@H](C2)N(CC2CC2)CC[C@]314 [Compound 2, bis((4R,4aS,7aR,12bS)-3-(cyclopropylmethyl)-4a-hydroxy-7-oxo-2,3,4,4a,5,6,7,7a-octahydro-1H-4,12-methanobenzofuro[3,2-e]isoquinolin-9-yl) 2,2′-(naphthalene-2,6-diyl)diacetate]
half-life at 50 nM [1]: 20.9 min
Compound 2 conc. ([2]; single i.m. dose of Compound 2, day 0.042 (1 hr), Rat 1): 0.223 ng/mL
Compound 2 conc. ([2]; single i.m. dose of Compound 2, day 0.042 (1 hr), Rat 2): 0.112 ng/mL
Compound 2 conc. ([2]; single i.m. dose of Compound 2, day 0.042 (1 hr), Rat 3): <0.1 ng/mL
Compound 2 conc. ([2]; single i.m. dose of Compound 2, day 0.042 (1 hr), Rat 4): 0.131 ng/mL
Compound 2 conc. ([2]; single i.m. dose of Compound 2, day 0.042 (1 hr), Rat 5): 0.113 ng/mL
Compound 2 conc. ([2]; single i.m. dose of Compound 2, day 0.33 (8 hr), Rat 1): <0.1 ng/mL
Compound 2 conc. ([2]; single i.m. dose of Compound 2, day 0.33 (8 hr), Rat 2): <0.1 ng/mL
Compound 2 conc. ([2]; single i.m. dose of Compound 2, day 0.33 (8 hr), Rat 3): <0.1 ng/mL
Compound 2 conc. ([2]; single i.m. dose of Compound 2, day 0.33 (8 hr), Rat 4): <0.1 ng/mL
Compound 2 conc. ([2]; single i.m. dose of Compound 2, day 0.33 (8 hr), Rat 5): <0.1 ng/mL
Compound 2 conc. ([2]; single i.m. dose of Compound 2, day 1, Rat 1): <0.1 ng/mL
Compound 2 conc. ([2]; single i.m. dose of Compound 2, day 1, Rat 2): <0.1 ng/mL
Compound 2 conc. ([2]; single i.m. dose of Compound 2, day 1, Rat 3): <0.1 ng/mL
Compound 2 conc. ([2]; single i.m. dose of Compound 2, day 1, Rat 4): <0.1 ng/mL
Compound 2 conc. ([2]; single i.m. dose of Compound 2, day 1, Rat 5): <0.1 ng/mL
Compound 2 conc. ([2]; single i.m. dose of Compound 2, day 2, Rat 1): <0.1 ng/mL
Compound 2 conc. ([2]; single i.m. dose of Compound 2, day 2, Rat 2): <0.1 ng/mL
Compound 2 conc. ([2]; single i.m. dose of Compound 2, day 2, Rat 3): <0.1 ng/mL
Compound 2 conc. ([2]; single i.m. dose of Compound 2, day 2, Rat 4): <0.1 ng/mL
Compound 2 conc. ([2]; single i.m. dose of Compound 2, day 2, Rat 5): <0.1 ng/mL
Compound 2 conc. ([2]; single i.m. dose of Compound 2, day 7, Rat 1): <0.1 ng/mL
Compound 2 conc. ([2]; single i.m. dose of Compound 2, day 7, Rat 2): <0.1 ng/mL
Compound 2 conc. ([2]; single i.m. dose of Compound 2, day 7, Rat 3): 0.175 ng/mL
Compound 2 conc. ([2]; single i.m. dose of Compound 2, day 7, Rat 4): <0.1 ng/mL
Compound 2 conc. ([2]; single i.m. dose of Compound 2, day 7, Rat 5): <0.1 ng/mL
Compound 2 conc. ([2]; single i.m. dose of Compound 2, day 10, Rat 1): 0.111 ng/mL
Compound 2 conc. ([2]; single i.m. dose of Compound 2, day 10, Rat 2): <0.1 ng/mL
Compound 2 conc. ([2]; single i.m. dose of Compound 2, day 10, Rat 3): 0.104 ng/mL
Compound 2 conc. ([2]; single i.m. dose of Compound 2, day 10, Rat 4): 0.119 ng/mL
Compound 2 conc. ([2]; single i.m. dose of Compound 2, day 10, Rat 5): <0.1 ng/mL
Compound 2 conc. ([2]; single i.m. dose of Compound 2, day 14, Rat 1): 0.119 ng/mL
Compound 2 conc. ([2]; single i.m. dose of Compound 2, day 14, Rat 2): 0.135 ng/mL
Compound 2 conc. ([2]; single i.m. dose of Compound 2, day 14, Rat 3): <0.1 ng/mL
Compound 2 conc. ([2]; single i.m. dose of Compound 2, day 14, Rat 4): 0.144 ng/mL
Compound 2 conc. ([2]; single i.m. dose of Compound 2, day 14, Rat 5): 0.136 ng/mL
Compound 2 conc. ([2]; single i.m. dose of Compound 2, day 17, Rat 1): <0.1 ng/mL
Compound 2 conc. ([2]; single i.m. dose of Compound 2, day 17, Rat 2): <0.1 ng/mL
Compound 2 conc. ([2]; single i.m. dose of Compound 2, day 17, Rat 3): <0.1 ng/mL
Compound 2 conc. ([2]; single i.m. dose of Compound 2, day 17, Rat 4): <0.1 ng/mL
Compound 2 conc. ([2]; single i.m. dose of Compound 2, day 17, Rat 5): <0.1 ng/mL
Compound 2 conc. ([2]; single i.m. dose of Compound 2, day 21, Rat 1): <0.1 ng/mL
Compound 2 conc. ([2]; single i.m. dose of Compound 2, day 21, Rat 2): <0.1 ng/mL
Compound 2 conc. ([2]; single i.m. dose of Compound 2, day 21, Rat 3): <0.1 ng/mL
Compound 2 conc. ([2]; single i.m. dose of Compound 2, day 21, Rat 4): <0.1 ng/mL
Compound 2 conc. ([2]; single i.m. dose of Compound 2, day 21, Rat 5): 3.25 ng/mL
Compound 2 conc. ([2]; single i.m. dose of Compound 2, day 24, Rat 1): 0.198 ng/mL
Compound 2 conc. ([2]; single i.m. dose of Compound 2, day 24, Rat 2): 0.177 ng/mL
Compound 2 conc. ([2]; single i.m. dose of Compound 2, day 24, Rat 3): 0.217 ng/mL
Compound 2 conc. ([2]; single i.m. dose of Compound 2, day 24, Rat 4): 0.170 ng/mL
Compound 2 conc. ([2]; single i.m. dose of Compound 2, day 24, Rat 5): 0.280 ng/mL
Compound 2 conc. ([2]; single i.m. dose of Compound 2, day 28, Rat 1): 0.236 ng/mL
Compound 2 conc. ([2]; single i.m. dose of Compound 2, day 28, Rat 2): 0.193 ng/mL
Compound 2 conc. ([2]; single i.m. dose of Compound 2, day 28, Rat 3): 0.205 ng/mL
Compound 2 conc. ([2]; single i.m. dose of Compound 2, day 28, Rat 4): 0.176 ng/mL
Compound 2 conc. ([2]; single i.m. dose of Compound 2, day 28, Rat 5): 0.111 ng/mL
Compound 2 conc. ([2]; single i.m. dose of Compound 2, day 35, Rat 1): 0.165 ng/mL
Compound 2 conc. ([2]; single i.m. dose of Compound 2, day 35, Rat 2): 0.439 ng/mL
Compound 2 conc. ([2]; single i.m. dose of Compound 2, day 35, Rat 3): 0.350 ng/mL
Compound 2 conc. ([2]; single i.m. dose of Compound 2, day 35, Rat 4): 0.265 ng/mL
Compound 2 conc. ([2]; single i.m. dose of Compound 2, day 35, Rat 5): 0.152 ng/mL
Compound 2 conc. ([2]; single i.m. dose of Compound 2, day 42, Rat 1): 0.155 ng/mL
Compound 2 conc. ([2]; single i.m. dose of Compound 2, day 42, Rat 2): 0.156 ng/mL
Compound 2 conc. ([2]; single i.m. dose of Compound 2, day 42, Rat 3): 0.212 ng/mL
Compound 2 conc. ([2]; single i.m. dose of Compound 2, day 42, Rat 4): 0.199 ng/mL
Compound 2 conc. ([2]; single i.m. dose of Compound 2, day 42, Rat 5): 0.205 ng/mL
Compound 2 conc. ([2]; single i.m. dose of Compound 2, day 49, Rat 1): <0.1 ng/mL
Compound 2 conc. ([2]; single i.m. dose of Compound 2, day 49, Rat 2): <0.1 ng/mL
Compound 2 conc. ([2]; single i.m. dose of Compound 2, day 49, Rat 3): <0.1 ng/mL
Compound 2 conc. ([2]; single i.m. dose of Compound 2, day 49, Rat 4): <0.1 ng/mL
Compound 2 conc. ([2]; single i.m. dose of Compound 2, day 49, Rat 5): <0.1 ng/mL
Compound 2 conc. ([2]; single i.m. dose of Compound 2, day 56, Rat 1): 0.358 ng/mL
Compound 2 conc. ([2]; single i.m. dose of Compound 2, day 56, Rat 2): 0.205 ng/mL
Compound 2 conc. ([2]; single i.m. dose of Compound 2, day 56, Rat 3): 0.105 ng/mL
Compound 2 conc. ([2]; single i.m. dose of Compound 2, day 56, Rat 4): 0.170 ng/mL
Compound 2 conc. ([2]; single i.m. dose of Compound 2, day 56, Rat 5): 0.163 ng/mL
Compound 2 conc. ([2]; single i.m. dose of Compound 2, day 63, Rat 1): <0.1 ng/mL
Compound 2 conc. ([2]; single i.m. dose of Compound 2, day 63, Rat 2): <0.1 ng/mL
Compound 2 conc. ([2]; single i.m. dose of Compound 2, day 63, Rat 3): <0.1 ng/mL
Compound 2 conc. ([2]; single i.m. dose of Compound 2, day 63, Rat 4): 0.142 ng/mL
Compound 2 conc. ([2]; single i.m. dose of Compound 2, day 63, Rat 5): <0.1 ng/mL
Compound 2 conc. ([2]; single i.m. dose of Compound 2, day 71, Rat 1): <0.1 ng/mL
Compound 2 conc. ([2]; single i.m. dose of Compound 2, day 71, Rat 2): <0.1 ng/mL
Compound 2 conc. ([2]; single i.m. dose of Compound 2, day 71, Rat 3): <0.1 ng/mL
Compound 2 conc. ([2]; single i.m. dose of Compound 2, day 71, Rat 4): <0.1 ng/mL
Compound 2 conc. ([2]; single i.m. dose of Compound 2, day 71, Rat 5): <0.1 ng/mL
Compound 2 conc. ([2]; single i.m. dose of Compound 2, day 78, Rat 1): <0.1 ng/mL
Compound 2 conc. ([2]; single i.m. dose of Compound 2, day 78, Rat 2): <0.1 ng/mL
Compound 2 conc. ([2]; single i.m. dose of Compound 2, day 78, Rat 3): <0.1 ng/mL
Compound 2 conc. ([2]; single i.m. dose of Compound 2, day 78, Rat 4): <0.1 ng/mL
Compound 2 conc. ([2]; single i.m. dose of Compound 2, day 78, Rat 5): <0.1 ng/mL
Compound 2 conc. ([2]; single i.m. dose of Compound 2, day 85, Rat 1): <0.1 ng/mL
Compound 2 conc. ([2]; single i.m. dose of Compound 2, day 85, Rat 2): <0.1 ng/mL
Compound 2 conc. ([2]; single i.m. dose of Compound 2, day 85, Rat 3): <0.1 ng/mL
Compound 2 conc. ([2]; single i.m. dose of Compound 2, day 85, Rat 4): <0.1 ng/mL
Compound 2 conc. ([2]; single i.m. dose of Compound 2, day 85, Rat 5): <0.1 ng/mL
Compound 2 conc. ([2]; single i.m. dose of Compound 2, day 91, Rat 1): <0.1 ng/mL
Compound 2 conc. ([2]; single i.m. dose of Compound 2, day 91, Rat 2): <0.1 ng/mL
Compound 2 conc. ([2]; single i.m. dose of Compound 2, day 91, Rat 3): <0.1 ng/mL
Compound 2 conc. ([2]; single i.m. dose of Compound 2, day 91, Rat 4): <0.1 ng/mL
Compound 2 conc. ([2]; single i.m. dose of Compound 2, day 91, Rat 5): <0.1 ng/mL
plasma concentrations of parent Compound 2 and the resultant intermediate ([2]; rat, single i.m. dose of Compound 2, over 91 days): generally low to not measurable
conversion of Compound 2 in rats to naltrexone ([2]; rat, single i.m. dose, over 91 days): efficient conversion
